From patent publication US20150105252A1, “SUBSTITUTED PYRAZOLES AS HERBICIDES” (E I DU PONT DE NEMOURS AND COMPANY, priority 2013, published 2015)

Experiments:
morningglory = assay: Test C preemergence; type: in vivo, Ipomoea coccinea; settings: for Plant response rating (scale of 0 to 100), Morningglory: Preemergence, 250 g ai/ha
Method in brief: (§1)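 Pre- and postemergence greenhouse screen; vehicle was a non-phytotoxic solvent mix with surfactant. Preemergence: treatment applied right after sowing into loam and sand. Postemergence: treated at 1–4 leaves. Visual rating at 13–15 days, 100 = complete control.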

soybean = assay: Test C postemergence; type: in vivo, Glycine max; settings: for Soybean plant response rating / Plant response rating, Soybean: postemergence; for Soybean plant response rating: 62 g ai/ha, scale 0 to 100
Method in brief: as §1

lambsquarters = assay: Test C preemergence; type: in vivo, Chenopodium album; settings: for Plant response rating (scale of 0 to 100), Lambsquarters: Preemergence, 250 g ai/ha
Method in brief: as §1

kochia = assay: Test C postemergence; type: in vivo, Kochia scoparia; settings: for Kochia plant response rating: scale 0 to 100
Method in brief: as §1

rice = assay: Test B flood; type: in vivo, Oryza sativa; settings: 250 g ai/ha, visual rating on 0 to 100 scale (0 no effect, 100 complete control), 13 to 15 days
Method in brief: (§2)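 2-leaf plants; pots flooded 3 cm over soil; compound added to paddy water, depth kept constant. Greenhouse 13–15 d. Visual rating vs controls, 0–100 scale (100 = complete control); dash = no result.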

ducksalad = assay: Test B flood; type: in vivo, Heteranthera limosa; settings: 250 g ai/ha, visual rating on 0 to 100 scale (0 no effect, 100 complete control), 13 to 15 days
Method in brief: as §2

nutsedge, yellow [1] = assay: Test C postemergence; type: in vivo, Cyperus esculentus; settings: for Nutsedge, Yellow plant response rating: scale 0 to 100
Method in brief: as §1

crabgrass, large = assay: Test A postemergence; type: in vivo, Digitaria sanguinalis; settings: Postemergence, 1000 g ai/ha; visual rating after approx. 10 days, 0 to 100 scale (0 no effect, 100 complete control)
Method in brief: (§3)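 Growth medium: loam soil blended with sand. Preemergence treatment used a directed soil spray right after planting; postemergence treatment targeted seedlings at one to two leaves (2–10 cm height). Response was judged by eye relative to untreated plants about 10 days later on a 0–100 control scale.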

velvetleaf = assay: Test C preemergence; type: in vivo, Abutilon theophrasti; settings: for Plant response rating (scale of 0 to 100), Velvetleaf: Preemergence, 250 g ai/ha
Method in brief: as §1

barnyardgrass = assay: Test A preemergence; type: in vivo, Echinochloa crus-galli
Method in brief: as §3

nutsedge, yellow [2] = assay: Test C preemergence; type: in vivo, Cyperus esculentus; settings: for Plant response rating (scale of 0 to 100), Nutsedge, Yellow: Preemergence, 250 g ai/ha
Method in brief: as §1

johnsongrass = assay: Test C postemergence; type: in vivo, Sorghum halepense; settings: for Johnsongrass plant response rating: scale 0 to 100
Method in brief: as §1

waterhemp = assay: Test C preemergence; type: in vivo, Amaranthus rudis; settings: for Waterhemp plant response rating: preemergence
Method in brief: as §1

[3] = preemergence, 31 g ai/ha, scale 0 to 100 (0 no effect, 100 complete control), 13 to 15 days
[4] = preemergence, 62 g ai/ha, 13 to 15 days, scale 0 to 100, 0 = no effect, 100 = complete control
[5] = preemergence, 125 g ai/ha, scale 0 to 100, 0 is no effect, 100 is complete control
[6] = 250 g ai/ha, scale 0 to 100 (0 no effect, 100 complete control)
[7] = 125 g ai/ha, scale 0 to 100, 0 no effect, 100 complete control
[8] = postemergence, 250 g ai/ha, scale 0 to 100 (0 no effect, 100 complete control)
[9] = postemergence, 125 g ai/ha, scale 0 to 100, 0 no effect, 100 complete control
[10] = preemergence, 31 g ai/ha, visual rating, scale 0 to 100 (0 no effect, 100 complete control), 13 to 15 days
[11] = preemergence, 62 g ai/ha, scale 0 to 100 (0 no effect, 100 complete control), 13 to 15 days
[12] = Postemergence, 31 g ai/ha, visually evaluated after 13 to 15 days

Structure (SMILES) | Plant response rating (scale of 0 to 100), Morningglory (morningglory) | Morningglory plant response rating (morningglory; [5]) | Soybean plant response rating (soybean) | Plant response rating, Soybean (soybean; [6]) | Plant response rating, Soybean (soybean; [7]) | Plant response rating (scale of 0 to 100), Lambsquarters (lambsquarters) | Lambsquarters plant response rating (lambsquarters; [5]) | Kochia plant response rating (kochia; postemergence, 62 g ai/ha) | Plant response rating, Kochia (kochia; [8]) | Plant response rating, Kochia (kochia; [9]) | Plant response rating, Rice (rice) | Plant response rating, Ducksalad (ducksalad) | Nutsedge, Yellow plant response rating (nutsedge, yellow [1]; postemergence, 62 g ai/ha) | Plant response rating, Nutsedge, Yellow (nutsedge, yellow [1]; [8]) | Plant response rating, Nutsedge, Yellow (nutsedge, yellow [1]; [9]) | Plant response rating (scale of 0 to 100), Velvetleaf (velvetleaf) | Velvetleaf plant response rating (velvetleaf; [5]) | Plant response rating (scale of 0 to 100), Nutsedge, Yellow (nutsedge, yellow [2]) | Nutsedge, Yellow plant response rating (nutsedge, yellow [2]; [5]) | Johnsongrass plant response rating (johnsongrass; postemergence, 62 g ai/ha) | also measured
Cc1cc(C(=O)NCC(F)(F)F)nn1Cc1ccnc(C(F)(F)F)c1 [Compound 74] | 100 | 100 | 80 | 85 | 85 | 95 | 90 | 50 | 90 | 80 | 0 | 75 | 5 | 15 | 5 | 100 | 100 | 98 | 80 | 0 | Morningglory plant response rating (morningglory; [3]): 75; Plant response rating, Morningglory (morningglory; [4]): 100; Lambsquarters plant response rating (lambsquarters; [3]): 85; Plant response rating, Lambsquarters (lambsquarters; [4]): 90; Kochia plant response rating (kochia; Postemergence, 31 g ai/ha): 20; Nutsedge, Yellow plant response rating (nutsedge, yellow [1]; Postemergence, 31 g ai/ha): 0; Crabgrass, Large plant response rating (crabgrass, large): 100; Velvetleaf plant response rating (velvetleaf; [3]): 45; Plant response rating, Velvetleaf (velvetleaf; [4]): 65; Barnyardgrass plant response rating (barnyardgrass; Preemergence, 1000 g ai/ha, 0 to 100 scale, 0 no effect, 100 complete control): 100; Nutsedge, Yellow plant response rating (nutsedge, yellow [2]; [3]): 15; Plant response rating, Nutsedge, Yellow (nutsedge, yellow [2]; [4]): 60; Johnsongrass plant response rating (johnsongrass; Postemergence, 31 g ai/ha): 0; Plant response rating, Johnsongrass (johnsongrass; [8]): 15; Plant response rating, Johnsongrass (johnsongrass; [9]): 5
CCc1cc(C(=O)NOC(C)C)nn1Cc1ccnc(OC(F)F)c1 [Compound 126] | 100 | 98 | 45 | 65 | 55 | 100 | 100 | 50 | 65 | 65 | 20 | 95 | 5 | 15 | 5 | 100 | 100 | 90 | 75 | 10 | Morningglory plant response rating (morningglory; [10]): 55; Morningglory plant response rating (morningglory; [11]): 70; Plant response rating (scale of 0 to 100 where 0 is no effect and 100 is complete control), Soybean (soybean; [12]): 40; Lambsquarters plant response rating (lambsquarters; [10]): 85; Lambsquarters plant response rating (lambsquarters; [11]): 98; Plant response rating (scale of 0 to 100 where 0 is no effect and 100 is complete control), Kochia (kochia; [12]): 55; Plant response rating (scale of 0 to 100 where 0 is no effect and 100 is complete control), Nutsedge, Yellow (nutsedge, yellow [1]; [12]): 5; Plant response rating (scale of 0 to 100), Waterhemp (waterhemp; Preemergence, 250 g ai/ha): 100; Waterhemp plant response rating (waterhemp; 31 g ai/ha, visual rating, scale 0 to 100 (0 no effect, 100 complete control), 13 to 15 days): 90; Waterhemp plant response rating (waterhemp; 62 g ai/ha, scale 0 to 100 (0 no effect, 100 complete control), 13 to 15 days): 98; Waterhemp plant response rating (waterhemp; 125 g ai/ha, scale 0 to 100, 0 is no effect, 100 is complete control): 100; Velvetleaf plant response rating (velvetleaf; [10]): 65; Velvetleaf plant response rating (velvetleaf; [11]): 85; Barnyardgrass plant response rating (barnyardgrass; preemergence, 125 g ai/ha, visual injury, 0 to 100 scale, approx. 10 days): 90; Barnyardgrass plant response rating (barnyardgrass; preemergence, 500 g ai/ha, visual injury after approx. 10 days, 0 to 100 scale (0 no effect, 100 complete control)): 100; Nutsedge, Yellow plant response rating (nutsedge, yellow [2]; [10]): 25; Nutsedge, Yellow plant response rating (nutsedge, yellow [2]; [11]): 45; Plant response rating (scale of 0 to 100 where 0 is no effect and 100 is complete control), Johnsongrass (johnsongrass; [12]): 5; Plant response rating, Johnsongrass (johnsongrass; [8]): 25; Plant response rating, Johnsongrass (johnsongrass; [9]): 20
